Assay results as given in patent US20050074879A1, “Antisense oligonucleotide modulation of STAT3 expression” (priority 2000, published 2005).
Oligonucleotides are written 5' to 3', each unit as a sugar letter and its base; * is a phosphorothioate linkage, no mark a phosphodiester; rarer units and linkages stand in square brackets, end groups in braces. Plain capitals give the bases only. e = 2'-O-(2-methoxyethyl) (MOE); [5mC] = 5-methylcytosine; d = 2'-deoxy (DNA)

Columns and labels:
[1] = tested on: Mouse STAT3 protein; experiment: STAT3 protein levels in BCL1 cells by Western blot, dose response; type: cell-based; details: compared with mismatch control
Description: ISIS 17152 (SEQ ID. NO. 99) was chosen for further study. The effect of this oligonucleotide on protein levels was determined by Western blot. ISIS 23177 (SEQ ID NO. 106), a 3 base mismatch, was used as a control. BCL1 cells were grown, treated and processed as described in Example 2.
Nuclear extracts from primary B cells and B lymphoma cell lines were prepared as described in Karras, J. G., et al. (J. Exp. Med., 1997, 185, 1035-1042).
Western blotting was performed as described in Karras, J. G. et al. (J. Immunol., 1996, 157, 2299). STAT1 and STAT3 antibodies were obtained from UBI (Lake Placid, N.Y.).

[2] = tested on: BCL1 cells; experiment: BCL1 cell proliferation, [3H]-thymidine incorporation; type: cell-based, mouse; details: summary of Table 6
Description: The effect of ISIS 17152 (SEQ ID NO. 99) on BCL1 proliferation was determined. BCL1 cells contain constitutively active STAT3 which is thought to be responsible for their proliferation. BCL1 cells were grown, treated and processed as described in Example 2.
1×10^5 BCL1 cells were incubated in 96-well plates in […] complete RPMI following electroporation. Cultures were pulsed with […] of [^3H]-thymidine for the last 8 hours of culture and cells were harvested and analyzed for thymidine incorporation as described in Francis, D. A. et al. (Int. Immunol., 1995, 7, 151-161) 48 hours after electroporation.

[3] = tested on: IgM secretion by BCL1 cells; experiment: BCL1 IgM secretion, ELISA; type: cell-based, mouse; details: compared with mismatch control
Description: The effect of ISIS 17152 (SEQ ID. NO. 99) on IgM secretion levels was determined. STAT3 has been implicated in regulation of IgM expression (Faris, M., et al., Immunology, 1997, 90, 350-357). BCL1 cells were grown, treated and processed as described in Example 2.
1×10^6 BCL1 cells were incubated in 12-well plates in 2 mL complete RPMI following electroporation. Supernatant was replaced at 24 hour post electroporation with fresh medium. 48 hours later, supernatants were harvested, centrifuged to remove cells, and assayed for IgM content using the OPT-EIA™ ELISA kit (Pharmingen, San Diego, Calif.) and capture and detecting antibodies for mouse IgM (Southern Biotechnology, Birmingham, Ala.).

[4] = tested on: RANTES mRNA; experiment: Induction of chemokines in BCL1 cells, RNase protection assay: RANTES; type: cell-based, mouse; details: statement covers all three chemokines
Description: The effect of ISIS 17152 (SEQ ID. NO. 99) on chemokine levels was determined. BCL1 cells were grown, treated and processed as described in Example 2. Chemokine gene expression was induced in BCL1 cells by addition of […] of a CpG-containing oligonucleotide to the media 16 hours following antisense oligonucleotide electroporation. CpG-containing oligonucleotides are immune-stimulatory (Krieg, A. M., et al., Nature, 1995, 374, 546-549). The levels of chemokines were measured eight hours later using RNase protection assay as described in Example 2 with a mouse chemokine template set, Mck-5 (Pharmingen, San Diego, Calif.).

[5] = tested on: Mouse B16 melanoma cells; experiment: Cell number of B16 melanoma cells after antisense treatment; type: cell-based; details: 24 hours after transfection
Description: Mouse B16 melanoma cells were grown in RPMI 1640 (Life Technologies, Inc., Grand Island, N.Y.) medium supplemented with 10% fetal bovine serum, 2 mM L-glutamine, 1 mM sodium pyruvate, 1% MEM nonessential amino acids and 100 IU/ml penicillin/streptomycin.
(§1) Cells were treated with ISIS 17152, targeted to mouse STAT3, or the 3-base mismatch control, ISIS 28084 ([…]; SEQ ID NO: 151). Cells were transfected with oligonucleotide using LipofectAMINE PLUSJ reagent (GibcoBRL). Oligonucleotide was pre-complexed with LipofectAMINE PLUSJ by adding the oligonucleotide to 100 μl serum-free RPMI 1640 medium, then 6 μl LipofectAMINE PLUSJ reagent was added, the sample was mixed well and incubated for 15 minutes at room temperature. An additional 4 μl of LipofectAMINE PLUSJ reagent was diluted to 100 μl in serum-free RPMI. This diluted LipofectAMINE PLUSJ was mixed with the pre-complexed oligonucleotide/LipofectAMINE PLUSJ mixture and incubated for 15 minutes at room temperature. 800 μl of serum-free RPMI 1640 was added, and the resulting oligonucleotide-LipofectAMINE PLUSJ-medium mixture (approximately 1 ml) was added to cells in a 6-well plate. After 3 hours incubation, 1 ml of RPMI 1640 supplemened with 20% fetal bovine serum was added. Oligonucleotide concentrations were 200 nM or 300 nM.
24 hours after transfection, cells were counted to determine the effect of antisense treatment on cell death. Cells were harvested at 24 hours post transfection for western blot analysis and at 48 hours post-transfection for Annexin-V staining for apoptosis.

[6] = tested on: B16 cells; experiment: Apoptosis in B16 cells, Annexin V-PE staining and flow cytometry; type: cell-based, mouse
Description: as §1
24 hours after transfection, cells were counted to determine the effect of antisense treatment on cell death. […]
Apoptosis in B16 cells was measured by staining with Annexin V-PE (Clontech) and flow cytometry analysis 48 hours after antisense treatment. […]

[7] = tested on: STAT3 protein; experiment: STAT3 protein in B16 cells, Western blot; type: cell-based, mouse; details: 200 nM or 300 nM, 24 hours after treatment
Description: as §1
24 hours after transfection, cells were counted to determine the effect of antisense treatment on cell death. Cells were harvested at 24 hours post transfection for western blot analysis and at 48 hours post-transfection for Annexin-V staining for apoptosis. […]

[8] = tested on: Human STAT3 mRNA; experiment: Inhibition of human STAT3 mRNA expression in U266 cells, Northern blot; type: cell-based; details: following electroporation, Northern blotting
Description: U266 human myeloma cell lines (originally obtained from American Type Culture Collection) were maintained in RPMI 1640 medium supplemented with 10% fetal calf serum. Cells (15×10^6 cells in PBS) were transfected with oligonucleotides at 200V with a single 6-millisecond pulse using a BTX Electro Square Porator T820 (Genetronics, San Diego Calif.). The cells were incubated for 24 hours before RNA extraction.
Total cellular RNA was isolated using the Rneasy kit (Qiagen, Santa Clarita, Calif.). Northern blotting was perfomed on 15 μg of RNA using a cDNA probe prepared from MB-MDA 468 RNA by standard RT-PCR followed by a nested primer reaction. Signals were quantitated using a Molecular Dynamics Phosphorimager.
In order to examine the importance of STAT3 expression in multiple myeloma cells, a series of 20mer STAT3 antisense oligonucleotides were designed and synthesized, using phosphorothioate chemistry and incorporating 2′-O-methoxyethyl modifications to improve hybridization affinity and nuclease resistance.

[9] = tested on: LGL leukemic cells; experiment: Sensitization of LGL cells to Fas-mediated apoptosis, flow cytometry; type: cell-based, human
Description: LGL leukemic cells were obtained from patients who met the clinical criteria of T cell (CD3+) LGL leukemia with increased LGL counts and clonal TCR gene rearrangements. All patients had chronic disease not requiring treatment at the time of analysis. Purified leukemic LGL cells were placed in 24-well plates at a concentration of 2×10^6/0.5 mL of complete medium (RPMI-1640 medium supplemented with 10% fetal bovine serum, 2 mM L-glutamine, 10 U/mL penicillin, and 100 ug/mL streptomycin, all from Gibco Life Technologies, Gaithersburg, Md.). Cells were incubated with either ISIS 17148 antisense oligonucleotide (SEQ ID NO: 95) or the control, ISIS 16094 (SEQ ID NO: 152). Antisense oligonucleotide delivery to LGL leukemic cells was by passive uptake and no transfection reagents were included in the reaction.
Extracts of LGL cells treated with antisense oligonucleotides (1 uM dosing for ISIS 17148 and the control) from three patients were obtained and assayed for STAT3 protein levels by Western blot. Sensitization of the LGL cells to Fas-mediated apoptosis was also measured by flow cytometry in cells treated with antisense oligonucleotides at doses of 1, 2 and 5 uM. By Western analysis, a reduction in STAT3 protein levels ranged from 25 to 45%. […] Levels of apoptosis in control oligonucleotide treated cells remained at 6% at all doses.

[10] = tested on: U266 multiple myeloma cells; experiment: Apoptosis of U266 cells, Annexin-V staining, flow cytometry; type: cell-based, human
Description: U266 cells (ATCC, Bethesda, Md.) were cultured in RPMI 1640 medium supplemented with 10% heat-inactivated fetal bovine serum (Sigma Chemical Company, St. Louis, Mo.), 10 mM Hepes, pH 7.2, […] 2-ME, 2mM L-glutamine, 100 U/ml penicillin, and 100 µg/ml streptomycin (Gibco, Grand Island, N.Y.).
2′-O-methoxyethylribose modified phosphorothioate oligonucleotides were synthesized on an automated DNA synthesizer (Applied Biosystems model 380B), as described above. Chimeric oligonucleotides were employed in these studies; the chimeric oligonucleotides contain 2′-O-methoxyethyl modified residues flanking a 2′-deoxynucleotide/phosphorothioate region (gap) that supports RNase H activation. Oligonucleotides were analyzed by capillary gel electrophoresis and judged to be at least 85% full-length material. U266 (1×10^7 cells in PBS) were transfected with oligonucleotides by electroporation, at 175V, 1000 μF using a BTX Electro Cell Manipulator 600 (Genetronics, San Diego, Calif.).
10×10^6 U266 cells were electroporated with oligonucleotides and cultured for 48 hours before analysis of phosphatidylserine expression was performed as a measure of apoptosis using the Annexin-V staining kit (Clontech, Palo Alto, Calif.) according to the manufacturer's instructions. […] The samples were then diluted with FacsFlow buffer and analyzed on a Becton Dickinson FACScan (Mountain View, Calif.).

[11] = tested on: LNCaP human prostatic carcinoma xenograft; experiment: LNCaP mouse model of prostate carcinoma: tumor volume and serum PSA in castrated nude mice; type: in vivo; details: 10 mg/kg intraperitoneally, up to 10 weeks post-castration
Description: The LNCaP murine model of human prostate carcinoma is described in Kiyama et al., Cancer Res. 63:3575-3584, 2003, incorporated herein by reference. Briefly, LNCaP human prostatic carcinoma cells were cultured and maintained in RPMI medium (Life Technologies, Inc., Carlsbad, Calif.) supplemented with 5% heat inactivated fetal calf serum (FCS). About 1×10^6 LNCaP cells were inoculated subcutaneously with 0.1 ml of Matrigel (Becton Dickinson Labware, Franklin Lakes, N.J.) in the flank region of 6-8 week old male athymic nude mice (Harlan Sprague Dawley, Inc., Indianapolis, Ind.) via a 27 gauge needle under methoxyfluorane anesthesia. Mice bearing tumors between 300 and 500 mm^3 in volume were castrated via a scrotal approach and randomly assigned to treatment with 10 mg/kg of either ISIS 113176 human antisense or ISIS 129987 human mismatch control STAT 3 oligonucleotide intraperitoneally five times per week for the first week followed by three times per week thereafter. Treatment commenced beginning one day after castration. […] Tumor volumes were calculated by the formula L×W×H×0.5236 (Gleave et al., Cancer Res. 51:1598-1605, 1992). Blood samples were obtained from tail vein incisions of mice, and serum PSA levels were determined by an enzymatic immunoassay kit with a lower limit of sensitivity of 0.2 μg/liter (Abbott IMX, Montreal, Quebec, Canada) according to the manufacturer's protocol.

Row | Sequence | reducing STAT3 protein levels (in words) [1] | reduction of BCL1 cell proliferation [2] | reducing IgM secretion (in words) [3] | expression of the chemokines, RANTES, MIP-1 and MIP-1 (in words) [4] | cell number ([5]; 200 nM, Expt 1) | cell number ([5]; 200 nM, Expt 2) | cell number ([5]; 200 nM, Expt 3) | cell number ([5]; 300 nM, Expt 2) | cell number ([5]; 300 nM, Expt 3) | cells staining positive for Annexin-V ([6]; 48 hours after antisense treatment) | increase in apoptotic cells ([6]; versus mock and control oligonucleotide) | STAT3 protein production (in words) [7] | STAT3 mRNA expression in U266 cells (in words) [8] | percent specific apoptosis ([9]; 1 uM, untreated cells 5%) | percent specific apoptosis ([9]; 2 uM) | percent specific apoptosis ([9]; 5 uM) | annexin V staining (in words) [10] | induction of serum PSA levels [11] | tumor growth [11]
1 | AAAAAGTGCCCAGATTGCCC (antisense eA*eA*eA*eA*eA*dG*dT*dG*dC*dC*dC*dA*dG*dA*dT*eT*eG*e[5mC]*e[5mC]*e[5mC]) [ISIS 17152] | significantly better at reducing STAT3 protein levels than the mismatch control | approximately 50% | significantly better at reducing IgM secretion than the mismatch control | able to induce the expression of the chemokines | 3.8 × 10^5 | 6.8 × 10^5 | 1.8 × 10^5 | 3.5 × 10^5 | 2.2 × 10^5 | 29.84% | nearly threefold increase | significantly reduced |  |  |  |  |  |  | 
2 | ACTCAAACTGCCCTCCTGCT (listed as DNA, chemistry not fully specified) [ISIS 17148] |  |  |  |  |  |  |  |  |  |  |  |  | potently inhibit STAT3 mRNA expression | 6% | 17% | 24% | increased levels of annexin V staining |  | 
3 | GCTCCAGCATCTGCTGCTTC (antisense eG*e[5mC]*eT*e[5mC]*e[5mC]*dA*dG*d[5mC]*dA*dT*d[5mC]*dT*dG*d[5mC]*dT*eG*e[5mC]*eT*eT*e[5mC]) [ISIS 113176] |  |  |  |  |  |  |  |  |  |  |  |  | potently inhibit STAT3 mRNA expression |  |  |  |  | suppressed | suppressed
